Reference: ChEMBL document CHEMBL5727895, “Nitrogen-containing heteroaryl compound and pharmaceutical use thereof” (2020)

Assay: Evaluation of GLUT9 Inhibitory Activity: Uricase/Hyper transiently-transfected human GLUT9 stably expressing cells or mock cells (blank) were seeded in a 96 well plate (Corning) at 1.6×10^5 cells/well, and cultured overnight at 37° C., 5% CO2. D-MEM/high glucose (Wako Pure Chemical Industries, Ltd.) containing 10% Fetal Bovine Serum (Lifetechnology) and 100 units/ml penicillin/100 μg/ml streptomycin (GIBCO) was used as a medium. High K− buffer (129.8 mM KCl, 1.2 mM KH2PO4, 1.2 mM MgSO4.7H2O, 1.3 mM CaCl2. 2H2O, 25 mM HEPES, pH 7.4 with 1 M Tris) and the medium were mixed in equal amount to prepare Assay Buffer. The medium in each well was removed, and the test compound solution (final 1% DMSO) diluted with Assay Buffer was added thereto at 50 μl/well, and the mixture was left stand at room temperature for 30 to 60 min. For the solvent control and blank, Assay Buffer containing DMSO alone was added at 50 μl/well, and the mixture was left stand at room temperature for 30 to 60 min. In addition, uric acid solution (containing [14C]uric acid as a tracer) diluted with Assay Buffer was added to each well at 15 μl/well (final 300 μM uric acid), and the uptake reaction was performed at room temperature for 6 min. After the completion of the reaction, the cells were washed three times with ice-cooled Wash Buffer (Hank's Balanced Salt Solution containing 0.01% Bovine Serum Albumin) at 150 μl/well, and 0.1N aqueous NaOH solution was added thereto at 25 μl/well to dissolve the cell. MicroScint-20 (Perkin-Elmer) was added thereto at 150 μl/well, the plate was shaked, and CPM of [14C] was measured by TopCount NXT (Perkin-Elmer).Data was obtained by deducting average of CPM in blank well from average of CPM in each treated well. The inhibitory rate of the test compound in each concentration was calculated from the following formula: [(A−B)/A]×100, A is data of solvent control, B is data of test compound treatment.

| Compound | IC50 |
| --- | --- |
| COc1ccc(-c2ncc(CC3CCC3)cc2-c2ccc(C(=O)O)cc2)cc1 | 192 nM |
| CCCCc1cnc(-c2cc(F)c(OC)c(F)c2)c(-c2ccc(C(=O)O)cc2)c1 | 57.8 nM |
| CCCCCc1cnc(-c2ccc(OC)cc2)c(-c2ccc(C(=O)O)cc2)c1 | 50.6 nM |
| CCCc1cnc(-c2cc(F)c(OC)c(F)c2)c(-c2ccc(C(=O)O)cc2)c1 | 72 nM |
| COc1ccc(-c2ncc(CC3CCCC3)cc2-c2ccc(C(=O)O)cc2)cc1 | 842 nM |
| CCCCc1cnc(-c2ccc(OC)cc2)c(-c2ccc(C(=O)O)cc2)n1 | 141 nM |
| CCCCc1cnc(-c2ccc(OC)c(F)c2)c(-c2ccc(C(=O)O)cc2)c1 | 89.2 nM |
| COCCCCc1cnc(-c2ccc(C(F)(F)F)cc2)c(-c2ccc(C(=O)O)cc2)n1 | 158 nM |
| CCCCc1cnc(-c2ccc(OC)cc2)c(-c2ccc(C(=O)O)cc2)c1F | 83.7 nM |
| COCCCc1cnc(-c2ccc(OC)cc2)c(-c2ccc(CCC(=O)O)cc2)n1 | 91.8 nM |
| CCCCc1cnc(-c2ccc(CC)c(C)c2)c(-c2ccc(C(=O)O)cc2)n1 | 150 nM |
| CCCCc1cnc(-c2ccc(C)cc2)c(-c2ccc(C(=O)O)cc2)c1 | 340 nM |
| CCCc1cnc(-c2ccc(OC)cc2)c(-c2ccc(C(=O)O)cc2)c1 | 89 nM |
